{"source": "ChEMBL document CHEMBL4334494", "about": "“Recent advances in the targeting of human DNA ligase I as a potential new strategy for cancer treatment” (Eur J Med Chem, 2019)", "key": {"DNA ligase 1 [1]": {"target": "T1, DNA ligase 1 (Homo sapiens, UniProt P18858)", "T1 sequence (P18858 whole entry)": "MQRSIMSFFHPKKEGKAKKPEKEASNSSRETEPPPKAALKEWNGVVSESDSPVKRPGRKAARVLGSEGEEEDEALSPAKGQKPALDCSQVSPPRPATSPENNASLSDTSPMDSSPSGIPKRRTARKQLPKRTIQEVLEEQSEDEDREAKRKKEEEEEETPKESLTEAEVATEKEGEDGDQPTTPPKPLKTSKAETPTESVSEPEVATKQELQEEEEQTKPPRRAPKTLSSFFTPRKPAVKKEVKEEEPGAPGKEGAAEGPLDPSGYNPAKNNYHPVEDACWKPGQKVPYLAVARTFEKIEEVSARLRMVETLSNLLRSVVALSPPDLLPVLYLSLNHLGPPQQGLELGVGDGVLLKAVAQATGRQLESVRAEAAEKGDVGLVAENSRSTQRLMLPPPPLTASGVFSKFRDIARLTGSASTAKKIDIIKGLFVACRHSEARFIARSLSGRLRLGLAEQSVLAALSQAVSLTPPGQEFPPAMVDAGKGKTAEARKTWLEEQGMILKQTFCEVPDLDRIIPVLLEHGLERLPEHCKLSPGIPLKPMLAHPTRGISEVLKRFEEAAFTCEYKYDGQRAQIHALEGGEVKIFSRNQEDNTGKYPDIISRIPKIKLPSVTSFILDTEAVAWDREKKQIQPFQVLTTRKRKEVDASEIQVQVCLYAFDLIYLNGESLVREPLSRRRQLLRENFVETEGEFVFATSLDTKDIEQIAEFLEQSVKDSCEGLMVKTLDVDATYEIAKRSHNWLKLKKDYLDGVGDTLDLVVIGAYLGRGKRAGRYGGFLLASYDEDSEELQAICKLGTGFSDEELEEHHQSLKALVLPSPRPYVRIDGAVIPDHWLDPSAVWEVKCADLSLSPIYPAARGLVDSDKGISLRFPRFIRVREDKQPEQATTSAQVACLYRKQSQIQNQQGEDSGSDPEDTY", "assay": "Competitive inhibition of human DNA ligase 1 using nicked DNA as substrate by high-throughput fluorescence energy transfer-based DNA joining assay"}, "DNA ligase 3": {"target": "T2, DNA ligase 3 (Homo sapiens, UniProt P49916)", "T2 sequence (P49916 whole entry)": "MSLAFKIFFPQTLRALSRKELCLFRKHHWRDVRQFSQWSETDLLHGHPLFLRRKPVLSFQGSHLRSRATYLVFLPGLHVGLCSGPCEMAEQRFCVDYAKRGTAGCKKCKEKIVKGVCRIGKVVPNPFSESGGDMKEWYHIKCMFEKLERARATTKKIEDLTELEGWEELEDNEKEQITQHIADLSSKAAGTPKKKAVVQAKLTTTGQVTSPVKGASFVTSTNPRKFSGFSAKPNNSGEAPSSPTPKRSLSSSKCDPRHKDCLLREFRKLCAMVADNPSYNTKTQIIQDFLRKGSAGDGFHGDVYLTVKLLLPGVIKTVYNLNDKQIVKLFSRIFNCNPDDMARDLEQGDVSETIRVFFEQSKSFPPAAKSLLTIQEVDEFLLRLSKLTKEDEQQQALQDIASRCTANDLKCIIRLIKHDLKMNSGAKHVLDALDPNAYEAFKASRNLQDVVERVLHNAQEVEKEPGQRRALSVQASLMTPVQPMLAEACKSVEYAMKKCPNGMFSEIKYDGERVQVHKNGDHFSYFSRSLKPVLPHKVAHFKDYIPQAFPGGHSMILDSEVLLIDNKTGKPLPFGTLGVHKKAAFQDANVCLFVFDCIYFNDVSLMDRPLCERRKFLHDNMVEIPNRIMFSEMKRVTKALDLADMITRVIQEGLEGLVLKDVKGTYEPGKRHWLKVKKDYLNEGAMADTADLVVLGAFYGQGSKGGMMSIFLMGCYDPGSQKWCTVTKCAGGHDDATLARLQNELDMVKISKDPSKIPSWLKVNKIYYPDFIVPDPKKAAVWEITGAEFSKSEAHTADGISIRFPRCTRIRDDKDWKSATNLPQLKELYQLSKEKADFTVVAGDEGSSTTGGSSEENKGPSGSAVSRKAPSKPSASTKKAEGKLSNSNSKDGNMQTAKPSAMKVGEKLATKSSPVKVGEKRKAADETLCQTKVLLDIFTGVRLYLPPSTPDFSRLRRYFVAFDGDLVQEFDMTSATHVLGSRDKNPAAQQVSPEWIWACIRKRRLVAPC", "assay": "Competitive inhibition of human DNA ligase 3 using nicked DNA as substrate by high-throughput fluorescence energy transfer-based DNA joining assay"}, "DNA ligase 4": {"target": "T3, DNA ligase 4 (Homo sapiens, UniProt P49917)", "T3 sequence (P49917 whole entry)": "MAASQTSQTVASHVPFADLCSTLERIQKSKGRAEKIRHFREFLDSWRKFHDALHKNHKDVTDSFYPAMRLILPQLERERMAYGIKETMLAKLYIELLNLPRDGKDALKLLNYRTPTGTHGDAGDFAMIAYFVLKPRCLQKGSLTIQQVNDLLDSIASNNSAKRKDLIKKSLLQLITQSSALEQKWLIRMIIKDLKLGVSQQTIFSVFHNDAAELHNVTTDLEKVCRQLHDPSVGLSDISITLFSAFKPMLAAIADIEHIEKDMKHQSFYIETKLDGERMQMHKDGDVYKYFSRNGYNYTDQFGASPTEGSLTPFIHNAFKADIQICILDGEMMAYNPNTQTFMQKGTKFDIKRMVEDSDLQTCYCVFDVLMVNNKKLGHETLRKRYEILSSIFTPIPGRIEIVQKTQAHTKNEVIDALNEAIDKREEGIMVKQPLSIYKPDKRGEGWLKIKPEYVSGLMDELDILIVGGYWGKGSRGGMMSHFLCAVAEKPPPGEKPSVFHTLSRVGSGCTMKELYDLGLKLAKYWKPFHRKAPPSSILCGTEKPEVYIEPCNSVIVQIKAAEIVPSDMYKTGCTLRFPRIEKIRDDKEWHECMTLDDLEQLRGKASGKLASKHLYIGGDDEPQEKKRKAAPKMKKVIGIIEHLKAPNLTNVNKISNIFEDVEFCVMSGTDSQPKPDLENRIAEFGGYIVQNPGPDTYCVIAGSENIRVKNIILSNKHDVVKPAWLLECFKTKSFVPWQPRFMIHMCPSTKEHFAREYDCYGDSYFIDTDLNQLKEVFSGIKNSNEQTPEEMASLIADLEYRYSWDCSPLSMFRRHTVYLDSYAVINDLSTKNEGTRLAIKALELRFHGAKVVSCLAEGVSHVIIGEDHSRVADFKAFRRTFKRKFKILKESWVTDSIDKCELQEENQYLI", "assay": "Competitive inhibition of human DNA ligase 4 using nicked DNA as substrate by high-throughput fluorescence energy transfer-based DNA joining assay"}, "HCT-116": {"system": "HCT-116", "assay": "Antiproliferative activity against human HCT116 cells relative to control", "assay_type": "functional"}, "DNA ligase 1 [2]": {"target": "T1, DNA ligase 1", "assay": "Inhibition of human DNA ligase 1 at 100 uM using nicked DNA as substrate by high-throughput fluorescence energy transfer-based DNA joining assay relative to control"}, "DNA ligase 1 [3]": {"target": "T1, DNA ligase 1", "assay": "Inhibition of human DNA ligase 1"}, "DNA ligase 1 [4]": {"target": "T1, DNA ligase 1", "assay": "Uncompetitive inhibition of human DNA ligase 1 using nicked DNA as substrate by high-throughput fluorescence energy transfer-based DNA joining assay"}, "DLD-1": {"system": "DLD-1", "assay": "Antiproliferative activity against human DLD1 cells after 48 hrs by MTT assay", "assay_type": "functional, cell-based", "settings": "DLD-1, 48 h"}, "MDA-MB-231": {"system": "MDA-MB-231", "assay": "Antiproliferative activity against human MDA-MB-231 cells after 48 hrs by MTT assay", "assay_type": "functional, cell-based", "settings": "MDA-MB-231, 48 h"}, "[5]": {"assay": "Antiproliferative activity against human 46BR.1G1 cells after 48 hrs by MTT assay", "assay_type": "functional, cell-based"}, "DNA ligase 1 [6]": {"target": "T1, DNA ligase 1", "assay": "Inhibition of human DNA ligase 1 at 50 uM using 52-mer DNA/25-mer DNA/27-mer DNA as substrate by fluorescence assay relative to control"}, "HEK293": {"system": "HEK293", "assay": "Cytotoxicity against HEK293 cells after 48 hrs by MTT assay", "assay_type": "cell-based", "settings": "Homo sapiens, HEK293, 48 h"}, "HepG2": {"system": "HepG2", "assay": "Antiproliferative activity against human HepG2 cells after 48 hrs by MTT assay", "assay_type": "functional, cell-based", "settings": "HepG2, 48 h"}}}
{"molecule": "Nc1nc(S)nc(O)c1/N=C/c1ccccc1", "values": [{"measurement": "IC50", "setting": "DNA ligase 1 [1]", "result": 5, "unit": "µM"}, {"measurement": "IC50", "setting": "DNA ligase 3", "result": 9, "unit": "µM"}, {"measurement": "IC50", "setting": "DNA ligase 4", "result": 5, "unit": "µM"}, {"measurement": "Activity", "setting": "HCT-116", "result": 70, "unit": "%"}, {"measurement": "inhibition", "setting": "DNA ligase 1 [2]", "result": 68.8, "unit": "%"}]}
{"molecule": "N[C@H](CO)Cc1cc(I)c(Oc2ccc(O)cc2)c(I)c1", "values": [{"measurement": "IC50", "setting": "DNA ligase 1 [3]", "result": 1, "unit": "µM"}]}
{"molecule": "O=c1[nH]ncc(N/N=C/c2ccc(O)c([N+](=O)[O-])c2)c1Cl", "values": [{"measurement": "IC50", "setting": "DNA ligase 1 [4]", "result": 12, "unit": "µM"}, {"measurement": "Activity", "setting": "HCT-116", "result": 70, "unit": "%"}, {"measurement": "inhibition", "setting": "DNA ligase 1 [2]", "result": 59.8, "unit": "%"}]}
{"molecule": "O=[N+]([O-])c1ccc(N/N=C(/c2ccc(O)cc2)c2cccc3ccccc23)c([N+](=O)[O-])c1", "values": [{"measurement": "IC50", "setting": "DLD-1", "result": 6.78, "unit": "µM"}, {"measurement": "IC50", "setting": "MDA-MB-231", "result": 7.02, "unit": "µM"}, {"measurement": "IC50", "setting": "[5]", "result": "> 25", "unit": "µM"}, {"measurement": "inhibition", "setting": "DNA ligase 1 [6]", "result": 93.1, "unit": "%"}, {"measurement": "IC50", "setting": "HEK293", "result": 12.6, "unit": "µM"}, {"measurement": "IC50", "setting": "HepG2", "result": 6.93, "unit": "µM"}]}
